Assays:
[1] = system: guinea pigs (citric acid-induced cough); test: citric acid cough challenge in guinea pigs; assay type: in vivo, guinea pig; conditions: for percentage (%) reduction of number of coughs / percentage (%) of reduction of number of cough efforts: mean±SEM
Method: Evaluation of the activities of Compound Ia and tiotropium bromide in an animal cough challenge model.
Male Dunkin-Hartley guinea pigs (250-350 g, Charles-River, Italy) were acclimatized in cages, (24±0.5° C.) for 1 week after delivery, with free access to water and standard rodent diet. One group of guinea pigs was actively sensitized by an intra-peritoneal injection of ovalbumin (100 mg/kg) followed by a subcutaneous injection of ovalbumin (100 mg/kg). Controls received the vehicle alone (0.9% NaCl).
After the period of acclimatization to laboratory conditions, animals were individually placed in a transparent perspex box (20×10×10 cm, Vetrotecnica, Italy) ventilated with a constant airflow of 400 ml/minute. A tussive agent (citric acid, 0.25 M) was nebulized via a mini-ultrasonic nebulizer (Ugo Basile, Italy). […] The numbers of elicited cough efforts were counted by a blind observer.
All experiments were carried out at the same time of day, starting at 9.00 a.m. Guinea-pigs received Compound Ia (1 mM) or tiotropium bromide (0.3 mM) or their vehicle (distilled water) for 10 minutes by aerosol at least 3 hour before the citric acid challenge (0.25 M; for 10 minute; by aerosol), in order to elicit cough.
Values are presented as mean±SEM. Comparisons among groups were made by one way analysis of variance (ANOVA) and the Student's t-test or the Bonferroni's test when appropriate. A p value of <0.05 was considered significant.

[2] = system: postviral coughing; conditions: inhaled, relative to placebo; cited from earlier work
[3] = system: adult nonsmokers with acute viral upper respiratory tract infection; conditions: once daily 18 μg by inhalation for 7 days; cited from earlier work
[4] = system: ovalbumin-sensitized guinea-pigs; conditions: administered intratracheally; cited from earlier work

With O=C(OC(c1cccc(F)c1)c1cccc(F)c1)O[C@H]1C[N+]2(CC(=O)c3cccs3)CCC1CC2.[Cl-] [Compound Ia] the “number of cough efforts induced by citric acid (statistical significance)” value ([1]; 1 mM by aerosol, 3 hours before citric acid 0.25 M) was “significantly reduced”, the “percentage (%) reduction of number of coughs” value ([1]; control, non-sensitized animals, 1 mM by aerosol, 3 hours before citric acid 0.25 M) was 17.4±6.4% and the “percentage (%) reduction of number of coughs” value ([1]; ovalbumin-sensitized animals, 1 mM by aerosol, 3 hours before citric acid 0.25 M) was 37.2±5.9%.

For CC(C)[N+]1(C)[C@@H]2CC[C@H]1C[C@@H](OC(=O)C(CO)c1ccccc1)C2 (stereo partly drawn) [ipratropium bromide], the “suppression of subjectively described postviral coughing” value [2] is given as “effective”.

For C[N+]1(C)[C@@H]2C[C@@H](OC(=O)C(O)(c3cccs3)c3cccs3)C[C@H]1[C@@H]1O[C@@H]12 [tiotropium bromide], the “number of cough efforts induced by citric acid (statistical significance)” value ([1]; 0.3 mM by aerosol, 3 hours before, both animal groups) was “did not reach a statistical significance”, the “percentage (%) of reduction of number of cough efforts” value ([1]; control animals, 0.3 mM by aerosol, 3 hours before citric acid 0.25 M) was 20.2±9.9% and the “percentage (%) of reduction of number of cough efforts” value ([1]; ovalbumin-sensitized animals, 0.3 mM by aerosol, 3 hours before citric acid 0.25 M) was 28.1±11%. For the same compound, the “cough reflex sensitivity to inhaled capsaicin” value [3] was “capable of inhibiting cough reflex sensitivity” and the “cough elicited by inhalation of citric acid” value [4] was “able to reduce cough”.
